Patent publication US20190002452A1 (GUANGZHOU HENOVCOM BIOSCIENCE CO., LTD, priority 2016, published 2019)

Biological target: T1, human farnesol receptor protein hFXR (Homo sapiens, UniProt Q96RI1)
T1 construct: hexahistidine (His6)
T1 sequence (Q96RI1 1-486): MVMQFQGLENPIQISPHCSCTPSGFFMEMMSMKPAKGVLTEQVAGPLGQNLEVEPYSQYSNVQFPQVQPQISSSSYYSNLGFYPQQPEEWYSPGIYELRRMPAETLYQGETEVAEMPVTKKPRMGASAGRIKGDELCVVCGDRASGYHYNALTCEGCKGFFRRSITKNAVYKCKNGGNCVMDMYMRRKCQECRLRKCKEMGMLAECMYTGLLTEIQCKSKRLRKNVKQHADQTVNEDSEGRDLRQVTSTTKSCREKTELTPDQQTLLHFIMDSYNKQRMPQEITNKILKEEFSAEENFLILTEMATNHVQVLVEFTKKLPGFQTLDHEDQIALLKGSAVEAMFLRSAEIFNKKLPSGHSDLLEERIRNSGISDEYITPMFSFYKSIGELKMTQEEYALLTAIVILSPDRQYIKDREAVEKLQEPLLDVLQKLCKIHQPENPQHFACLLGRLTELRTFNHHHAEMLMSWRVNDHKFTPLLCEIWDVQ
Assay: AlphaScreen assay of FXR agonist activity in vitro: effect on binding between human farnesol receptor protein and its coactivator (SRC1-2)
Assay type: biochemical
Conditions: hFXR 100 nM, peptide bSRC1-2 50 nM, 2 hr incubation at room temperature
Description: FXR agonist activity in vitro for the chemicals prepared in the above examples is measured.
AlphaScreen-based assays are performed with a hexahistidine detection kit manufactured by Perkins-Elmer, for measuring the effect of chemical compounds on the binding between human farnesol receptor protein and its coactivator (SRC1-2), the method is shown as follows:
1) Preparing a mixture comprising human farnesol receptor protein hFXR (100 nM, 15 μL/well), peptide bSRC1-2 (50 nM, 15 μL/well), 10× AlphaScreen buffer solution (15 μL/well and DI water (60 μL/well), and then transferring 105 μL/well of the mixture to a 96-well plate; 2) Diluting the chemicals prepared in the above examples by twice gradient 12×, with 15 μL/well; 3) Adding donor beads and acceptor beads, 30 μL/well in total; (attention: the beads are light-sensitive) 4) Incubating in dark at room temperature for 2 hr; 5) Transferring 40 μL/well of the mixture to a 384-well plate with 3 replicates, and then centrifuging at 1000 rpm for 1 min, to make liquid mixed well underneath the wells. (attention: photopathic operation); 6) In a dark room, reading the plate (by Homogeneous luminescent immunoassay system) to obtain EC50 with a GraphPad Prism5 software.

Compound | EC50 [nM]
2-(5-((5-cyclopropyl-3-(2,6-dichlorophenyl)isoxazol-4-yl)methoxy)hexahydrocyclopenta[c]pyrrol-2(1H)-yl) benzo[d]thiazole-6-carboxylic Acid [Example 27] | > 1000
O=C(O)c1cccc(C(=O)N2CCC3(CC2)CC(OCc2c(-c4c(Cl)cccc4Cl)noc2C2CC2)C3)c1 [Example 1] | > 1000
O=C(O)c1cccc(C(=O)N2CC3(CC(OCc4c(-c5c(Cl)cccc5Cl)noc4C4CC4)C3)C2)c1 [Example 3, 3-(6((5-cyclopropyl-3(2,6-dichlorophenyl)isoxazol-4-yl)methoxy)-2-azaspiro[3.3]heptan-2-carbonyl)benzoic Acid] | > 1000
O=C(O)c1cccc(C(=O)N2CC3CCC(C2)C3OCc2c(-c3c(Cl)cccc3Cl)noc2C2CC2)c1 (centres unmarked) [Example 5, 3-(8((5-cyclopropyl-3-(2,6-dichlorophenyl)isoxazol-4-yl)methoxy)3-azabicyclo[3.2.1]octan-3-carbonyl)benzoic Acid] | > 1000
O=C(O)c1ccc2nc(N3CC4CCC(C3)C4OCc3c(-c4c(Cl)cccc4Cl)noc3C3CC3)sc2c1 (centres unmarked) [Example 6, 2-(8-((5-cyclopropyl-3-(2,6-dichlorophenyl)isoxazol-4-yl)methoxy)-3-azabicyclo[3.2.1]octan-3-yl)benzo[d]thiazole-6-carboxylic Acid] | 100 to 1000
O=C(O)c1cccc(N2CC3(CC(OCc4c(-c5c(Cl)cccc5Cl)noc4C4CC4)C3)C2)c1 [Example 9, 3-(6-((5-cyclopropyl-3-(2,6-dichlorophenyl)isoxazol-4-yl)methoxy)-2-azaspiro[3.3]heptan-2-yl)benzoic Acid] | 100 to 1000
O=C(O)c1cccc(N2CCC3(CC(OCc4c(-c5c(Cl)cccc5Cl)noc4C4CC4)C3)C2)c1 (centres unmarked) [Example 10, 3-(2-((5-cyclopropyl-3-(2,6-dichlorophenyl)isoxazol-4-yl)methoxy)-6-azaspiro[3.4]octan-6-yl)benzoic Acid] | 100 to 1000
COc1cc(C(=O)O)cc2sc(N3CCC4(CC(OCc5c(-c6c(Cl)cccc6Cl)noc5C5CC5)C4)C3)nc12 (centres unmarked) [Example 12, 2-(2-((5-cyclopropyl-3-(2,6-dichlorophenyl)isoxazol-4-yl)methoxy)-6-azaspiro[3.4]octan-6-yl)-4-methoxybenzo[d]thiazole-6-carboxylic Acid] | 100 to 1000
O=C(O)c1cc(F)c2nc(N3CCC4(CC(OCc5c(-c6c(Cl)cccc6Cl)noc5C5CC5)C4)C3)sc2c1 (centres unmarked) [Example 13, 2-(2-((5-cyclopropyl-3-(2,6-dichlorophenyl)isoxazol-4-yl)methoxy)-6-azaspiro[3.4]octan-6-yl)-4-flurobenzo[d]thiazole-6-carboxylic Acid] | 100 to 1000
C[C@@H]1CC2(CC(OCc3c(-c4c(Cl)cccc4Cl)noc3C3CC3)C2)CN1c1nc2ccc(C(=O)O)cc2s1 (stereo partly drawn) [Example 15, (R)-2-(2-((5-cyclopropyl-3-(2,6-dichlorophenyl)isoxazol-4-yl)methoxy)-7-methyl-6-azaspiro[3.4]octan-6-yl) benzo[d]thiazole-6-carboxylic Acid] | 100 to 1000
O=C(O)c1ccc2nc(N3CC4(CC(OCc5c(-c6c(Cl)cccc6Cl)noc5C5CC5)C4)C[C@H]3CF)sc2c1 (stereo partly drawn) [Example 16, (S)-2-(2-((5-5-cyclopropyl-3-(2,6-dichlorophenyl)isoxazol-4-yl)methoxy)-7-(fluromethyl)-6-azaspiro[3.4]octan-6-yl) benzo[d]thiazole-6-carboxylic Acid] | 100 to 1000
C[C@@H]1CC2(CC(OCc3c(-c4c(Cl)cccc4Cl)noc3C3CC3)C2)CN1c1nc2c(F)cc(C(=O)O)cc2s1 (some centres unmarked) [Example 17] | 100 to 1000
COc1cc(C(=O)O)cc2sc(N3CC4(CC(OCc5c(-c6c(Cl)cccc6Cl)noc5C5CC5)C4)C[C@H]3C)nc12 (some centres unmarked) [Example 18] | 100 to 1000
O=C(O)c1cc(F)c2nc(N3CC4(CC(OCc5c(-c6c(Cl)cccc6Cl)noc5C5CC5)C4)C[C@H]3CF)sc2c1 (stereo partly drawn) [Example 19, (S)-2-(2-((5-cyclopropyl-3-(2,6-dichlorophenyl)isoxazol-4-yl)methoxy)-7-(fluromethyl)-6-azaspiro[3.4]octan-6-yl)-4-flurobenzo[d]thiazole-6-carboxylic Acid] | 100 to 1000
O=C(O)c1ccc2nc(N3CC4(CC(OCc5c(-c6c(Cl)cccc6Cl)noc5C5CC5)C4)C[C@H]3CF)oc2c1 (stereo partly drawn) [Example 21, (S)-2-(2-((5-cyclopropyl-3-(2,6-dichlorophenyl)isoxazol-4-yl)methoxy)-7-(fluromethyl)-6-azaspiro[3.4]octan-6-yl) benzo[d]oxazole-6-carboxylic Acid] | 100 to 1000

Next, values leading:

EC50 [nM] | Compound
< 100 | O=C(O)c1ccc2nc(N3CCC4(CC3)CC(OCc3c(-c5c(Cl)cccc5Cl)noc3C3CC3)C4)sc2c1 [Example 2, 2-(2((5-cyclopropyl-3-(2,6-dichlorophenyl)isoxazol-4-yl)methoxy)-7-azaspiro[3.5]nonan-7-yl)benzo[d]thiazole-6-carboxylic Acid]
< 100 | O=C(O)c1ccc2nc(N3CC4(CC(OCc5c(-c6c(Cl)cccc6Cl)noc5C5CC5)C4)C3)sc2c1 [Example 4, 2-(6((5-cyclopropyl-3-(2,6-dichlorophenyl)isoxazol-4-yl)methoxy)2-azaspiro[3.3]heptan-2-yl)benzo[d]thiazole-6-carboxylic Acid]
< 100 | O=C(O)c1cccc(C(=O)N2CCC3(CC(OCc4c(-c5c(Cl)cccc5Cl)noc4C4CC4)C3)C2)c1 (centres unmarked) [Example 7, 3-(2-((5-cyclopropyl-3-(2,6-dichlorophenyl)isoxazol-4-yl)methoxy)-6-azaspiro[3.4]octan-6-carbonyl)benzoic Acid]
< 100 | O=C(O)c1ccc2nc(N3CCC4(CC(OCc5c(-c6c(Cl)cccc6Cl)noc5C5CC5)C4)C3)sc2c1 (centres unmarked) [Example 8, 2-(2-((5-cyclopropyl-3-(2,6-dichlorophenyl)isoxazol-4-yl)methoxy)-6-azaspiro[3.4]octan-6-yl)benzo[d]thiazole-6-carboxylic Acid]
< 100 | O=C(O)c1ccc2nc(N3CC4CCCCC(C3)C4OCc3c(-c4c(Cl)cccc4Cl)noc3C3CC3)sc2c1 (centres unmarked) [Example 11, 2-(10-((5-cyclopropyl-3-(2,6-dichlorophenyl)isoxazol-4-yl)methoxy)-8-azabicyclo[4.3.1]decan-8-yl)benzo[d]thiazole-6-carboxylic Acid]
< 100 | O=C(O)c1ccc2nc(N3CCC4(CC(OCc5c(-c6c(Cl)cccc6Cl)noc5C5CC5)C4)C3)oc2c1 (centres unmarked) [Example 14, 2-(2-((5-cyclopropyl-3-(2,6-dichlorophenyl)isoxazol-4-yl)methoxy)-6-azaspiro[3.4]octan-6-yl) benzo[d]oxazole-6-carboxylic Acid]
< 100 | O=C(O)c1ccc2nc(N3Cc4ccc(OCc5c(-c6c(Cl)cccc6Cl)noc5C5CC5)cc4C3)sc2c1 [Example 22, 2-(5-((5-cyclopropyl-3-(2,6-dichlorophenyl)isoxazol-4-yl)methoxy)isoindolin-2-yl) benzo[d]thiazole-6-carboxylic Acid]
< 100 | O=C(O)c1ccc2nc(N3CCc4cc(OCc5c(-c6c(Cl)cccc6Cl)noc5C5CC5)ccc4C3)sc2c1 [Example 23, 2-(6-((5-cyclopropyl-3-(2,6-dichlorophenyl)isoxazol-4-yl)methoxy)-3,4-dihydroisoquinolin-2 (1H)-yl) benzo[d]thiazole-6-carboxylic Acid]
